Experimental findings from US20240425523A1, “Compounds for the Degradation of EGFR Kinase” (Beigene Switzerland GMBH, priority 2023, published 2024) are described below.

For assay [1], the target named is T1, EGFR L858R (BaF3-L858R cells) (Homo sapiens, UniProt P00533, L858R).
T1 construct: host or cells: BaF3
Nature of the assay: Cell degradation of EGFR, HTRF assay, BaF3-L858R cells. It is filed as cell-based. Particulars: 16 h treatment; for DC50: EGFR degradation; for Dmax: maximum percentage of degradation. The method, then:
BaF3-L858R (abbv. L858R) cell were purchased from Kangyuan Bochuang Biotechnology (Beijing) Co., Ltd.
(§1) H1975-#8 and BaF3-L858R cells are treated with compounds diluted in 0.1% DMSO cell culture medium on day 2, incubate for 16 h, 37° C., 5% CO2. the final concentration of compounds in all assay is start with 10 uM, 5-fold dilution, total 8 doses were included.
(§2) After 16 h treatment, for H1975-#8 cells, add 100 ul HTRF 1× lysis buffer to each well; for BaF3-L858R cells, add 20 μl 4× lysis buffer to each well; seal the plate and incubate 1 hour at room temperature on a plate shaker; Once the cells are lysed, 16 μL of cell lysate are transferred to a PE 384-well HTRF detection plate; 4 μL of pre-mixed HTRF antibodies are added to each well; Cover the plate with a plate sealer, spin 1000 rpm for 1 min, Incubate overnight at room temperature; Read on BMG PheraStar with HTRF protocol (337 nm-665 nm-620 nm).
(§3) High control=Cell group with added DMSO and without compound, indicating microplate readings without EGFR degradation;
(§4) Dmax is the maximum percentage of inhibition (degradation).
(§5) The IC50 (DC50) value of a compound can be obtained by fitting the following equation
(§6) Y=Bottom+(TOP−Bottom)/(1+((IC50/X)^hillslope))
(§7) Wherein, X and Y are known values, and IC50, Hillslope, Top and Bottom are the parameters obtained by fitting with software. […] The experimental data were fitted by calculating and analyzing with Dotmatics data analysis software.

The target in assay [2] is T2, EGFR-L858R/C797S (H1975-clone #8 cells) (Homo sapiens, UniProt P00533, C797S/L858R).
T2 construct: expressed in transfected cells; host or cells: H1975 (endogenous EGFR knocked out, clone #8)
T2 sequence (P00533 25-1210 C797S/L858R): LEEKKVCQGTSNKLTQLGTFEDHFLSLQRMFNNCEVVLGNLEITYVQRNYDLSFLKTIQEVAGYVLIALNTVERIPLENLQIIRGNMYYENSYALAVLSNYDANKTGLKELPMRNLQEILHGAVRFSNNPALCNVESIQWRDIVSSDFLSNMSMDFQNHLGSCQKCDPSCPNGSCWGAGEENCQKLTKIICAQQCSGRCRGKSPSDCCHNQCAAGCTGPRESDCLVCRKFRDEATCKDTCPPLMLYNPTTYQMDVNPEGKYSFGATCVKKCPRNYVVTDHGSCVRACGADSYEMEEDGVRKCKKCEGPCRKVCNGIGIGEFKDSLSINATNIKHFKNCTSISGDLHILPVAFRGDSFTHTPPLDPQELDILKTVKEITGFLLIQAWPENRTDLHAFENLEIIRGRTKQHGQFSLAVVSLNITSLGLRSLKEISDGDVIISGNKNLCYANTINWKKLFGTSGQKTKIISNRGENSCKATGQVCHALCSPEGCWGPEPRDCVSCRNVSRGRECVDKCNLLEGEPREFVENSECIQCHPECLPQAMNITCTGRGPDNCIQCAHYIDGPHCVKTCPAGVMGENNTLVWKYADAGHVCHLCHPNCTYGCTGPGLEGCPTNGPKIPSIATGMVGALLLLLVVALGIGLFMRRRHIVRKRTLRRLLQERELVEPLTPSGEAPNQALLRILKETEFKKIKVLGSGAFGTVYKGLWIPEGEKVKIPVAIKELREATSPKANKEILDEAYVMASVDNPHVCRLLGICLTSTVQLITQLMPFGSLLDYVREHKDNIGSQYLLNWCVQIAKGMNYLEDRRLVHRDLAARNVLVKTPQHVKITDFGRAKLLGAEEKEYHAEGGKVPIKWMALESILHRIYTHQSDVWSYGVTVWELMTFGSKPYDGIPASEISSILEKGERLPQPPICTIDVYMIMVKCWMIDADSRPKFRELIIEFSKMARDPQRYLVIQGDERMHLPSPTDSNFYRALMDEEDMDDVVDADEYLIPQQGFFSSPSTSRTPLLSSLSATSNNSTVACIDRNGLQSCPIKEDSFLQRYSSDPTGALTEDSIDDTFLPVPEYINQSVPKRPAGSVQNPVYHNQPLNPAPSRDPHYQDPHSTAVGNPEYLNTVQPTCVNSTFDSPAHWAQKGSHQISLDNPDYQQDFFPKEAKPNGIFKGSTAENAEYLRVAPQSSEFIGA
Nature of the assay: Cell degradation of EGFR, HTRF assay, H1975-clone#8 (L858R/C797S) cells. It is filed as cell-based. The conditions noted are these: 16 h treatment; for DC50: EGFR degradation; for Dmax: maximum percentage of degradation. The method, then:
The EGFR over-expressed cells then underwent knockout, in which the EGFR targeting sgRNA was designed to only target the endogenous EGFR copies and preserve the exogenous EGFR copies. Followed by the knockout, the edited H1975 cells were seeded in 96 well plates at the concentration of […], cultured for about 2 weeks to allow single clones formation. The formed clones were screened by DNA sequencing and whole exon sequencing analysis for the desired edition.
as §1, §2, §3, §4, §5, §6, §7
A general note: In TR-FRET formats the signal depends on donor and acceptor labels being close together.

T1 sequence (P00533 25-1210 L858R): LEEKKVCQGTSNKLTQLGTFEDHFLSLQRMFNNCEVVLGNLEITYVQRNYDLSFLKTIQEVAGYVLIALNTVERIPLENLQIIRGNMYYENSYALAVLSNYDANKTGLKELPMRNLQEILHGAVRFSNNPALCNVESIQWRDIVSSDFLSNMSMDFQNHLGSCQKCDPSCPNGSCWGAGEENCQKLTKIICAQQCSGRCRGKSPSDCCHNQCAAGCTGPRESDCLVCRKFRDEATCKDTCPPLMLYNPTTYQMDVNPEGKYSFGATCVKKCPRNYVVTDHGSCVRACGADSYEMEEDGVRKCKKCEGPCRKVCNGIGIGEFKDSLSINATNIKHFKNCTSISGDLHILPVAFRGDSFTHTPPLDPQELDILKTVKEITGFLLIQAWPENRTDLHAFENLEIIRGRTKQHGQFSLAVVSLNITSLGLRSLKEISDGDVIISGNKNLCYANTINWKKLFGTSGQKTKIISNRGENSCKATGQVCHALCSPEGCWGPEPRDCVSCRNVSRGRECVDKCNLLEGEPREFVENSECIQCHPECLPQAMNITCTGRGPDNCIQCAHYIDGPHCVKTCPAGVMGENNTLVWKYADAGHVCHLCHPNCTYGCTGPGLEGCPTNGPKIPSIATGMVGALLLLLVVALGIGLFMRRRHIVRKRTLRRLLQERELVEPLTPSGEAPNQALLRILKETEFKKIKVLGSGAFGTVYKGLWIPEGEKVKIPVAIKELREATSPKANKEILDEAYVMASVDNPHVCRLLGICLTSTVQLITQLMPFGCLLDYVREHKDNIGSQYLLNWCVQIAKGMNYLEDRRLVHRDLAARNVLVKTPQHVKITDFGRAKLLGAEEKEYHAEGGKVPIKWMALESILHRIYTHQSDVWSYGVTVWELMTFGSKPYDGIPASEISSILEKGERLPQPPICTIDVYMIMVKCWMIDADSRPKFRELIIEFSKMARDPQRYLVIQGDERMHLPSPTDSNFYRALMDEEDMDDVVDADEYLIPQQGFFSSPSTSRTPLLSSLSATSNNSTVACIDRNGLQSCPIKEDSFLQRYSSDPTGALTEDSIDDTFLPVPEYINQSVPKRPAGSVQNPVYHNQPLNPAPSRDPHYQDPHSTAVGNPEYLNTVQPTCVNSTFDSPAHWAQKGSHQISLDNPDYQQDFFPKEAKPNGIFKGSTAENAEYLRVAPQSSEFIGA

As for `COC[C@@H]1CN(c2ccc3c(c2)N2C[C@@H]4CC[C@H](COc5c(cnn5C)-c5cc(cc(C)n5)C(=O)/N=C/2N3)C4)CCN1C1CCN(c2cc(F)c([C@H]3CCC(=O)NC3=O)c(F)c2)CC1` [Example 9, (R)-3-(4-(4-((S)-4-((7^1R,7^3S,E)-1^1,2^6-dimethyl-3-oxo-5^2,5^3-dihydro-1^1H,5^1H-9-oxa-4-aza-5(2,1)-benzo[d]imidazola-2(2,4)-pyridina-1(4,5)-pyrazola-7(1,3)-cyclopentanacyclononaphane-5^6-yl)-2-(methoxymethyl)piperazin-1-yl)piperidin-1-yl)-2,6-difluorophenyl)piperidine-2,6-dione], in assay [1], it took 6.11 nM to reach half-maximal degradation (DC50) and the Dmax amounted to 86.6%. In assay [2], the DC50 came out at 4.28 nM and the Dmax stood at 71.7%.
In assay [1], `Cc1cc2cc(n1)-c1cnn(C)c1OC[C@H]1CC[C@H](C1)CN1/C(=N/C2=O)Nc2ccc(N3CCN([C@H]4CCN(c5ccc(C6CCC(=O)NC6=O)nc5C)C[C@H]4F)CC3)cc21` (stereo partly drawn) [Example 15, 3-(5-((3R,4S)-4-(4-((7^1R,7^3S,E)-1^1,2^6-dimethyl-3-oxo-5^2,5^3-dihydro-1^1H,5^1H-9-oxa-4-aza-5(2,1)-benzo[d]imidazola-2(2,4)-pyridina-1(4,5)-pyrazola-7(1,3)-cyclopentanacyclononaphane-5^6-yl)piperazin-1-yl)-3-fluoropiperidin-1-yl)-6-methylpyridin-2-yl)piperidine-2,6-dione] showed a DC50 of 7.6 nM and a Dmax of 94.2%. In addition, in assay [2], the DC50 turned out to be 11.1 nM and the Dmax was 85.2%.
In assay [1], `Cc1cc2cc(n1)-c1cnn(CCO)c1OC[C@H]1CCC(C1)CN1/C(=N/C2=O)Nc2ccc(N3CCC(N4CCC(Nc5cc(F)c([C@H]6CCC(=O)NC6=O)c(F)c5)CC4)CC3)cc21` [Example 129, (R)-3-(2,6-difluoro-4-((1′-((7^1R,7^3S,E)-1^1-(2-hydroxyethyl)-2^6-methyl-3-oxo-5^2,5^3-dihydro-1^1H,5^1H-9-oxa-4-aza-5(2,1)-benzo[d]imidazola-2(2,4)-pyridina-1(4,5)-pyrazola-7(1,3)-cyclopentanacyclononaphane-5^6-yl)-[1,4′-bipiperidin]-4-yl)amino)phenyl)piperidine-2,6-dione] registered a DC50 of 16.2 nM and a Dmax of 71.9%. Besides, in assay [2], half-maximal degradation (DC50) was put at 1.45 nM and the Dmax was determined as 69.3%.
Turning to `Cc1cc2cc(n1)-c1cnn(C)c1OC[C@H]1CC[C@H](C1)CN1/C(=N/C2=O)Nc2ccc(N3CCN([C@@H]4CCN(c5cnc(C6CCC(=O)NC6=O)cc5C)C[C@@H]4F)CC3)cc21` (stereo partly drawn) [Example 21, 3-(5-((3S,4R)-4-(4-((7^1R,7^3S,E)-1^1,2^6-dimethyl-3-oxo-5^2,5^3-dihydro-1^1H,5^1H-9-oxa-4-aza-5(2,1)-benzo[d]imidazola-2(2,4)-pyridina-1(4,5)-pyrazola-7(1,3)-cyclopentanacyclononaphane-5^6-yl)piperazin-1-yl)-3-fluoropiperidin-1-yl)-4-methylpyridin-2-yl)piperidine-2,6-dione], in assay [1], the DC50 amounted to 2.99 nM and the Dmax stood at 99%. In assay [2], the DC50 was found to be 0.782 nM and the Dmax turned out to be 83.2%.
In assay [1], `Cc1cc2cc(n1)-c1cnn(C)c1OC[C@@H]1CC[C@@H](C1)CN1/C(=N/C2=O)Nc2ccc(N3CCN(C4CCN(c5ccc(C6CCC(=O)NC6=O)nc5C)CC4)CC3)cc21` (some centres unmarked) [Example 3, 3-(5-(4-(4-((7^1S,7^3R,E)-1^1,2^6-dimethyl-3-oxo-5^2,5^3-dihydro-1^1H,5^1H-9-oxa-4-aza-5(2,1)-benzo[d]imidazola-2(2,4)-pyridina-1(4,5)-pyrazola-7(1,3)-cyclopentanacyclononaphane-5^6-yl)piperazin-1-yl)piperidin-1-yl)-6-methylpyridin-2-yl)piperidine-2,6-dione] had a DC50 of 20.1 nM and a Dmax of 72.7%. In assay [2], the DC50 is 16.4 nM and the Dmax came to 44%.
Regarding `Cc1cc2cc(n1)-c1cnn(C)c1OC[C@H]1CC[C@H](C1)CN1/C(=N/C2=O)Nc2ccc(N3CCN(CC4CCN(c5ccc(C6CCC(=O)NC6=O)nc5C)CC4)CC3)cc21` (some centres unmarked) [Example 23, 3-(5-(4-((4-((7^1R,7^3S,E)-1^1,2^6-dimethyl-3-oxo-5^2,5^3-dihydro-1^1H,5^1H-9-oxa-4-aza-5(2,1)-benzo[d]imidazola-2(2,4)-pyridina-1(4,5)-pyrazola-7(1,3)-cyclopentanacyclononaphane-5^6-yl)piperazin-1-yl)methyl)piperidin-1-yl)-6-methylpyridin-2-yl)piperidine-2,6-dione], in assay [1], it took 12.8 nM to reach half-maximal degradation (DC50) and the Dmax turned out to be 86%. In addition, in assay [2], the DC50 was 0.608 nM and the Dmax is 55%.
Take `Cc1cc2cc(n1)-c1cnn(C)c1OC[C@H]1CC[C@H](C1)CN1/C(=N/C2=O)Nc2ccc(N3CCN([C@H]4CCN(c5cc(F)c(C6CCC(=O)NC6=O)nc5C)C[C@H]4F)CC3)cc21` (stereo partly drawn) [Example 27, 3-(5-((3R,4S)-4-(4-((7^1R,7^3S,E)-1^1,2^6-dimethyl-3-oxo-5^2,5^3-dihydro-1^1H,5^1H-9-oxa-4-aza-5(2,1)-benzo[d]imidazola-2(2,4)-pyridina-1(4,5)-pyrazola-7(1,3)-cyclopentanacyclononaphane-5^6-yl)piperazin-1-yl)-3-fluoropiperidin-1-yl)-3-fluoro-6-methylpyridin-2-yl)piperidine-2,6-dione]: the DC50 in assay [1] is 1.75 nM; in assay [2], 3.19 nM. Besides, the Dmax is 91.1% in assay [1] and 90.2% in assay [2].
In the case of `Cc1cc2cc(n1)-c1cnn(C)c1OC[C@H]1CC[C@H](C1)CN1/C(=N/C2=O)Nc2ccc(N3CCN(CCc4c(C)cc(C5CCC(=O)NC5=O)nc4C)CC3)cc21` (some centres unmarked) [Example 7, 3-(5-(2-(4-((7^1R,7^3S,E)-1^1,2^6-dimethyl-3-oxo-5^2,5^3-dihydro-1^1H,5^1H-9-oxa-4-aza-5(2,1)-benzo[d]imidazola-2(2,4)-pyridina-1(4,5)-pyrazola-7(1,3)-cyclopentanacyclononaphane-5^6-yl)piperazin-1-yl)ethyl)-4,6-dimethylpyridin-2-yl)piperidine-2,6-dione], the results for the DC50 in assay [1] and in assay [2] were 0.631 nM and 2.03 nM, respectively. Moreover, the values for the Dmax in assay [1] and in assay [2] were 99.4% and 45.4%, respectively.
Taken in the same sequence, the figures for `Cc1cc2cc(n1)-c1cnn(C)c1OC[C@H]1CC[C@H](C1)CN1/C(=N/C2=O)Nc2ccc(N3CCN([C@@H]4CCN(c5cc(F)c(C6CCC(=O)NC6=O)nc5C)C[C@@H]4F)CC3)cc21` (stereo partly drawn) [Example 14, 3-(5-((3S,4R)-4-(4-((7^1R,7^3S,E)-1^1,2^6-dimethyl-3-oxo-5^2,5^3-dihydro-1^1H,5^1H-9-oxa-4-aza-5(2,1)-benzo[d]imidazola-2(2,4)-pyridina-1(4,5)-pyrazola-7(1,3)-cyclopentanacyclononaphane-5^6-yl)piperazin-1-yl)-3-fluoropiperidin-1-yl)-3-fluoro-6-methylpyridin-2-yl)piperidine-2,6-dione] were 0.552 nM, 0.616 nM, 84% and 90.9%.
Consider `Cc1cc2cc(n1)-c1cnn(C)c1OC[C@H]1CC[C@H](C1)CN1/C(=N/C2=O)Nc2ccc(N3CCN([C@@H]4CCN(c5cccc6c5C(C)(C)C(=O)N6C5CCC(=O)NC5=O)C[C@@H]4F)CC3)cc21` (stereo partly drawn) [Example 11, 3-(4-((3S,4R)-4-(4-((7^1R,7^3S,E)-1^1,2^6-dimethyl-3-oxo-5^2,5^3-dihydro-1^1H,5^1H-9-oxa-4-aza-5(2,1)-benzo[d]imidazola-2(2,4)-pyridina-1(4,5)-pyrazola-7(1,3)-cyclopentanacyclononaphane-5^6-yl)piperazin-1-yl)-3-fluoropiperidin-1-yl)-3,3-dimethyl-2-oxoindolin-1-yl)piperidine-2,6-dione], for which, in assay [1], the DC50 was 0.834 nM and the Dmax stood at 84.6%. In assay [2], this compound had a DC50 of 3.75 nM and a Dmax of 61.5%.
Regarding `Cc1cc2cc(n1)-c1cnn(C)c1OC[C@H]1CC[C@H](C1)CN1/C(=N/C2=O)Nc2ccc(N3CCN([C@@H]4CCN(c5c(C)cc(C6CCC(=O)NC6=O)nc5C)C[C@@H]4F)CC3)cc21` (stereo partly drawn) [Example 13, 3-(5-((3S,4R)-4-(4-((7^1R,7^3S,E)-1^1,2^6-dimethyl-3-oxo-5^2,5^3-dihydro-1^1H,5^1H-9-oxa-4-aza-5(2,1)-benzo[d]imidazola-2(2,4)-pyridina-1(4,5)-pyrazola-7(1,3)-cyclopentanacyclononaphane-5^6-yl)piperazin-1-yl)-3-fluoropiperidin-1-yl)-4,6-dimethylpyridin-2-yl)piperidine-2,6-dione], the DC50 came out at 0.307 nM in assay [1] and 1.4 nM in assay [2]. Also, the figures for the Dmax in assay [1] and in assay [2] were 91.5% and 65.5%, respectively.

By DC50 is commonly meant the concentration giving 50% degradation. What is called Dmax is the greatest extent of degradation seen. Read a low Dmax as shallow degradation.
